In PubChem BioAssay (NCI):
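96-well plates; 48 h exposure; 5 concentrations. Endpoints by linear interpolation between flanking doses. Not reached: highest tested concentration assigned. The concentration for full growth arrest is given as TGI.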

Key:
Experiment in all cases: NCI anticancer screen, dose series, 48 h
[1] = system: A498 renal
[2] = system: A549 NSCLC
[3] = system: ACHN renal
[4] = system: DMS 114 small cell lung
[5] = system: EKVX NSCLC
[6] = system: HCT-116 colon
[7] = system: HL-60(TB) leukemia
[8] = system: HOP-62 NSCLC
[9] = system: HOP-92 NSCLC
[10] = system: HT29 colon
[11] = system: IGROV1 ovarian
[12] = system: KM12 colon
[13] = system: M14 melanoma
[14] = system: M19-MEL melanoma
[15] = system: NCI-H226 lung
[16] = system: NCI-H23 lung
[17] = system: NCI-H460 lung
[18] = system: OVCAR-5 ovarian
[19] = system: OVCAR-8 ovarian
[20] = system: RXF 393 renal
[21] = system: SF-295 CNS
[22] = system: SK-MEL-28 melanoma
[23] = system: SK-OV-3 ovarian
[24] = system: SNB-19 CNS
[25] = system: SNB-78 CNS
[26] = system: SR leukemia
[27] = system: TK-10 renal
[28] = system: U251 CNS
[29] = system: UACC-257 melanoma
[30] = system: UACC-62 melanoma
[31] = system: UO-31 renal
[32] = system: 786-0 renal
[33] = system: BT-549 breast
[34] = system: CAKI-1 renal
[35] = system: CCRF-CEM leukemia
[36] = system: COLO 205 colon
[37] = system: DU-145 prostate
[38] = system: HCC-2998 colon
[39] = system: HCT-15 colon
[40] = system: HS 578T breast
[41] = system: K-562 leukemia
[42] = system: LOX IMVI melanoma
[43] = system: MALME-3M melanoma
[44] = system: MCF7 breast
[45] = system: MDA-MB-231 breast
[46] = system: MDA-MB-435
[47] = system: MDA-N
[48] = system: MOLT-4 leukemia
[49] = system: NCI-H522 lung
[50] = system: NCI/ADR-RES ovarian
[51] = system: OVCAR-3 ovarian
[52] = system: OVCAR-4 ovarian
[53] = system: PC-3 prostate
[54] = system: RPMI-8226 leukemia
[55] = system: SF-268 CNS
[56] = system: SF-539 CNS
[57] = system: SK-MEL-2 melanoma
[58] = system: SK-MEL-5 melanoma
[59] = system: SN12C renal
[60] = system: SNB-75 CNS
[61] = system: SW-620 colon
[62] = system: T-47D breast

COc1cc(O)c2c(c1C)C(C)(O)c1c(C)coc1C2=O (stereo not given) was tested, and the TGI [1] was greater than 100 µM, the TGI [2] was greater than 100 µM and the TGI [3] was greater than 100 µM. It also gave a TGI [4] greater than 100 µM, a TGI [5] greater than 100 µM and a TGI [6] greater than 100 µM. It also gave a TGI [7] greater than 100 µM, a TGI [8] greater than 100 µM and a TGI [9] greater than 100 µM. It also gave a TGI [10] greater than 100 µM, a TGI [11] greater than 100 µM and a TGI [12] greater than 100 µM. For the same molecule, the TGI [13] was greater than 100 µM, the TGI [14] was greater than 100 µM and the TGI [15] was greater than 100 µM. For the same molecule, the TGI [16] was greater than 100 µM, the TGI [17] was greater than 100 µM and the TGI [18] was greater than 100 µM. It also gave a TGI [19] greater than 100 µM, a TGI [20] greater than 100 µM and a TGI [21] greater than 100 µM. The TGI [22] was greater than 100 µM, the TGI [23] was greater than 100 µM and the TGI [24] was greater than 100 µM. For the same molecule, the TGI [25] was greater than 100 µM, the TGI [26] was greater than 100 µM and the TGI [27] was greater than 100 µM. For the same molecule, the TGI [28] was greater than 100 µM, the TGI [29] was greater than 100 µM and the TGI [30] was greater than 100 µM. The TGI [31] was greater than 100 µM.
Molecule CC(O)C1(O)C(O)CC(OC2c3cc4c(c(O)c3[C@@H]3C[C@@]2(C)OC32C=c3cc[nH]c3=N2)C(=O)c2cccc(O)c2C4=O)OC1C (stereo not given in full) has a TGI [32] of 4.98 µM, a TGI [1] of 2.75 µM and a TGI [2] of 4.4 µM. The TGI [3] was 4.04 µM, the TGI [33] was 19.3 µM and the TGI [34] was 5.51 µM. The TGI [35] was 1.72 µM, the TGI [36] was 1.97 µM and the TGI [37] was 8.8 µM. For the same molecule, the TGI [5] was 3.6 µM, the TGI [38] was 2.84 µM and the TGI [6] was 3.31 µM. For the same molecule, the TGI [39] was 6.41 µM, the TGI [7] was 3.07 µM and the TGI [8] was 5.37 µM. For the same molecule, the TGI [9] was 7.44 µM, the TGI [40] was 5.87 µM and the TGI [10] was 2.68 µM. The TGI [11] was 3.22 µM, the TGI [41] was 4.78 µM and the TGI [12] was 3.77 µM. The TGI [42] was 3.17 µM, the TGI [13] was 2.73 µM and the TGI [43] was 2.15 µM. The TGI [44] was 1.69 µM, the TGI [45] was 3.89 µM and the TGI [46] was 3.14 µM. The TGI [47] was 3.41 µM, the TGI [48] was 2.67 µM and the TGI [15] was 3.17 µM. For the same molecule, the TGI [16] was 3.81 µM, the TGI [17] was 4.03 µM and the TGI [49] was 1.09 µM. For the same molecule, the TGI [50] was 18 µM, the TGI [51] was 6.45 µM and the TGI [52] was 7.2 µM. The TGI [18] was 9.49 µM, the TGI [19] was 4.75 µM and the TGI [53] was 4.86 µM. For the same molecule, the TGI [54] was 4.88 µM, the TGI [20] was 2.31 µM and the TGI [55] was 4.38 µM. The TGI [21] was 5.73 µM, the TGI [56] was 2.79 µM and the TGI [57] was 3.11 µM. For the same molecule, the TGI [22] was 3.78 µM, the TGI [58] was 5.56 µM and the TGI [23] was 9.47 µM. For the same molecule, the TGI [59] was 1.13 µM, the TGI [24] was 11.3 µM and the TGI [60] was 8 µM. It also gave a TGI [26] of 2.36 µM, a TGI [61] of 5.96 µM and a TGI [62] of 9.07 µM. The TGI [27] was 7.32 µM, the TGI [28] was 9.03 µM and the TGI [29] was 3.12 µM. The TGI [30] was 3.18 µM and the TGI [31] was 8.44 µM.
